Measurements reported in PubChem BioAssay (NCI).
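Following 48 hours of exposure in 96-well plates, responses at five concentrations were used to interpolate endpoints linearly. Abbreviation: GI50, concentration required for 50% inhibition of growth. TGI denotes the concentration required for complete inhibition of growth.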

Columns and labels:
Assay in all cases: inhibition of tumour cell growth, NCI panel, 48 h
[1] = test system: HT29 colon
[2] = test system: COLO 205 colon
[3] = test system: LOX IMVI melanoma
[4] = test system: SNB-75 CNS
[5] = test system: MDA-MB-435
[6] = test system: RXF 393 renal
[7] = test system: NCI-H226 lung
[8] = test system: SK-MEL-28 melanoma
[9] = test system: OVCAR-5 ovarian
[10] = test system: NCI-H460 lung

C#C[C@@]1(O)[C@@H](CO)O[C@@H](n2cc(C(F)(F)F)c3c(N)ncnc32)[C@@H]1O
GI50 [1]: 0.207 µM | TGI [1]: 8.3 µM | GI50 [2]: 0.255 µM | TGI [2]: 1.27 µM | GI50 [3]: 0.288 µM | TGI [3]: 2.98 µM | GI50 [4]: 1.12 µM | TGI [4]: 3.42 µM | GI50 [5]: 0.808 µM | TGI [5]: 11.3 µM | GI50 [6]: 0.841 µM | TGI [6]: 2.74 µM | GI50 [7]: 2.7 µM | TGI [7]: > 100 µM | GI50 [8]: 1.83 µM | TGI [8]: 10 µM | GI50 [9]: 1.59 µM | TGI [9]: 7.06 µM | GI50 [10]: 0.536 µM | TGI [10]: 10.6 µM

N#Cc1nc(C#N)c(Sc2ccccc2)c(Sc2ccccc2)c1Sc1ccccc1
GI50 [1]: 0.407 µM | GI50 [2]: 0.719 µM | TGI [2]: 2.03 µM | GI50 [3]: 0.17 µM | TGI [3]: 0.344 µM | GI50 [4]: 2.42 µM | TGI [4]: > 29.3 µM | GI50 [5]: 0.684 µM | TGI [5]: 7.17 µM | GI50 [6]: 0.98 µM | TGI [6]: 3.22 µM | GI50 [7]: 2.42 µM | GI50 [8]: 1.48 µM | TGI [8]: 2.89 µM | GI50 [9]: 2.34 µM | TGI [9]: 4.68 µM | GI50 [10]: 2.35 µM | TGI [10]: > 27.6 µM

O=C1Nc2ccccc2/C1=C\c1nc(-c2ccccc2F)n2ccccc12
GI50 [1]: 3.5 µM | TGI [1]: 12.1 µM | GI50 [2]: 4.08 µM | TGI [2]: 14.9 µM | GI50 [3]: 4.15 µM | TGI [3]: 15.6 µM | GI50 [4]: 1.79 µM | TGI [4]: 4.95 µM | GI50 [5]: 3.95 µM | TGI [5]: 16.1 µM | GI50 [6]: 3.14 µM | TGI [6]: 10.7 µM | GI50 [7]: 4.78 µM | TGI [7]: 21.3 µM | GI50 [8]: 3.71 µM | TGI [8]: 14.6 µM | GI50 [9]: 18 µM | TGI [9]: 53.5 µM | GI50 [10]: 2.17 µM | TGI [10]: 5.14 µM

CCC(=O)N1C/C(=C/c2ccc(Br)cc2)C(=O)/C(=C/c2ccc(Br)cc2)C1
GI50 [1]: 0.102 µM | TGI [1]: 0.433 µM | GI50 [2]: 0.611 µM | TGI [2]: 1.74 µM | GI50 [3]: < 0.0333 µM | TGI [3]: 0.248 µM | GI50 [4]: 2.34 µM | TGI [4]: 9.71 µM | GI50 [5]: 0.524 µM | TGI [5]: 1.46 µM | GI50 [6]: 0.22 µM | TGI [6]: 0.522 µM | GI50 [7]: 1.13 µM | TGI [7]: 4.38 µM | GI50 [8]: 1.53 µM | TGI [8]: 3.13 µM | GI50 [9]: 1.32 µM | TGI [9]: 3.22 µM | GI50 [10]: 0.827 µM | TGI [10]: 3.07 µM

COc1ccc(C2C(C#N)=C(N)Oc3c2sc2c(Br)cccc32)cc1 (stereo unspecified)
GI50 [1]: 3.8 µM | TGI [1]: 11.2 µM | GI50 [2]: 2.23 µM | TGI [2]: 5.39 µM | GI50 [3]: 2.03 µM | TGI [3]: 12.8 µM | GI50 [4]: 1.61 µM | TGI [4]: 8.06 µM | GI50 [5]: 0.373 µM | TGI [5]: 2.54 µM | GI50 [6]: 1.94 µM | TGI [6]: 5.96 µM | GI50 [7]: 6.62 µM | TGI [7]: 24 µM | GI50 [8]: 8.15 µM | TGI [8]: 24.1 µM | GI50 [9]: 8.95 µM | TGI [9]: 26.5 µM | GI50 [10]: 2.08 µM | TGI [10]: 21.9 µM

Cc1ccc(-c2nc(-c3nccc4ccccc34)oc2-c2ccccc2)cc1
TGI [1]: > 100 µM | TGI [2]: > 100 µM | TGI [3]: 48.2 µM | TGI [4]: 92.7 µM | TGI [5]: > 100 µM | TGI [6]: > 100 µM | TGI [7]: > 100 µM | TGI [8]: > 100 µM | TGI [9]: > 100 µM | TGI [10]: > 100 µM

Clc1ccc2c(c1)N(C1CCCN(Cc3ccccc3)C1)c1ccccc1S2 (stereo unspecified)
GI50 [1]: 11.5 µM | TGI [1]: > 100 µM | GI50 [2]: 2.9 µM | TGI [2]: 10.1 µM | GI50 [3]: 6 µM | TGI [3]: 35.8 µM | GI50 [4]: 4.11 µM | TGI [4]: > 100 µM | GI50 [5]: 1.79 µM | TGI [5]: 3.72 µM | GI50 [6]: 3.69 µM | TGI [6]: 25.3 µM | GI50 [7]: 22.6 µM | TGI [7]: > 100 µM | GI50 [8]: 7.69 µM | TGI [8]: > 100 µM | GI50 [9]: 14.6 µM | TGI [9]: > 100 µM | GI50 [10]: 3.17 µM | TGI [10]: 10.4 µM

COc1ccc(C(=O)c2cc3c(N)c(C(=O)Nc4cccc(Br)c4C)sc3nc2C)cc1
GI50 [1]: 0.0509 µM | TGI [1]: > 100 µM | GI50 [2]: 0.22 µM | TGI [2]: 0.987 µM | GI50 [3]: 0.0615 µM | TGI [3]: > 100 µM | GI50 [4]: 0.0405 µM | TGI [4]: > 100 µM | GI50 [5]: 0.0223 µM | TGI [5]: 0.0585 µM | GI50 [6]: 0.0214 µM | GI50 [7]: 0.173 µM | TGI [7]: > 100 µM | GI50 [8]: > 100 µM | TGI [8]: > 100 µM | GI50 [9]: 0.187 µM | TGI [9]: > 100 µM | GI50 [10]: 0.0962 µM

CCC(C)C1=C(O)[N+]2([O-])Oc3ccc(C4=C(O)C(=O)C(c5ccc(O)cc5)=C(O)C4=O)cc3OC2(C(C)CC)C(=O)N1O (stereo unspecified)
GI50 [1]: 31.4 µM | TGI [1]: > 100 µM | GI50 [2]: 12.6 µM | TGI [2]: > 100 µM | GI50 [3]: 7.28 µM | TGI [3]: 33.9 µM | GI50 [4]: > 100 µM | TGI [4]: > 100 µM | GI50 [5]: 9.77 µM | TGI [5]: 90.6 µM | GI50 [6]: 8.49 µM | TGI [6]: > 100 µM | GI50 [7]: 3.81 µM | TGI [7]: > 100 µM | GI50 [8]: 85.7 µM | TGI [8]: > 100 µM | GI50 [9]: > 100 µM | TGI [9]: > 100 µM | GI50 [10]: 4.26 µM | TGI [10]: > 100 µM

CNC(=O)c1c(F)cccc1Nc1nc(Nc2cc3c(cc2OC)CCN3C(=O)CN(C)C)nc2[nH]ccc12
GI50 [1]: 0.0643 µM | TGI [1]: 1.66 µM | GI50 [2]: 0.151 µM | TGI [2]: 3.48 µM | GI50 [3]: 2.4 µM | TGI [3]: 7.26 µM | GI50 [4]: 11.7 µM | TGI [4]: 24.7 µM | GI50 [5]: 1.4 µM | TGI [5]: 3.51 µM | GI50 [6]: 1.8 µM | TGI [6]: 3.6 µM | GI50 [7]: 16.2 µM | TGI [7]: 43.6 µM | GI50 [8]: 1.57 µM | TGI [8]: 2.97 µM | GI50 [9]: 4.88 µM | TGI [9]: 26.3 µM | GI50 [10]: 6.2 µM | TGI [10]: 30.1 µM

O=C(/C=C/c1ccccn1)c1ccc(OCc2nnc(-c3ccc(Cl)cc3)o2)cc1
GI50 [1]: 1.85 µM | TGI [1]: 3.99 µM | GI50 [2]: 2.23 µM | TGI [2]: 4.39 µM | GI50 [3]: 1.57 µM | TGI [3]: 3.01 µM | GI50 [4]: 1.46 µM | TGI [4]: 2.89 µM | GI50 [5]: 1.71 µM | TGI [5]: 3.6 µM | GI50 [6]: 1.7 µM | TGI [6]: 3.17 µM | GI50 [7]: 2.69 µM | TGI [7]: 7.79 µM | GI50 [8]: 1.77 µM | TGI [8]: 3.36 µM | GI50 [9]: 2.49 µM | TGI [9]: 4.89 µM | GI50 [10]: 3.24 µM | TGI [10]: 11.1 µM

COS(C)(=O)=O
TGI [1]: > 2 µM | TGI [2]: > 2 µM | TGI [3]: > 2 µM | TGI [4]: > 2 µM | TGI [5]: > 2 µM | TGI [6]: > 2 µM | TGI [7]: > 2 µM | TGI [8]: > 2 µM | TGI [9]: > 2 µM | TGI [10]: > 2 µM

CCOc1ccc(C(C[N+](=O)[O-])Sc2ccccc2N)cc1 (stereo unspecified)
GI50 [1]: 2.07 µM | TGI [1]: 4.19 µM | GI50 [2]: 4.74 µM | TGI [2]: 16.8 µM | GI50 [3]: 1.44 µM | TGI [3]: 2.92 µM | GI50 [4]: 2.8 µM | TGI [4]: 17.4 µM | GI50 [5]: 2.25 µM | TGI [5]: 6.95 µM | GI50 [6]: 2.1 µM | TGI [6]: 4.6 µM | GI50 [7]: 3.96 µM | TGI [7]: 16.2 µM | GI50 [8]: 4.03 µM | TGI [8]: 14.8 µM | GI50 [9]: 11.2 µM | TGI [9]: 23.2 µM | GI50 [10]: 10.2 µM | TGI [10]: 27 µM

CCCCOc1ccc(/C=N/Nc2cc(C)nc3ccc(Br)cc23)cc1
GI50 [1]: 1.55 µM | TGI [1]: 2.97 µM | GI50 [2]: 1.85 µM | TGI [2]: 3.47 µM | GI50 [3]: 1.77 µM | TGI [3]: 3.24 µM | GI50 [4]: 1.7 µM | TGI [4]: 3.24 µM | GI50 [5]: 1.8 µM | TGI [5]: 3.27 µM | GI50 [6]: 1.6 µM | TGI [6]: 3.05 µM | GI50 [7]: 1.83 µM | TGI [7]: 3.82 µM | GI50 [8]: 1.72 µM | TGI [8]: 3.13 µM | GI50 [9]: 1.86 µM | TGI [9]: 3.25 µM | GI50 [10]: 2.08 µM | TGI [10]: 4.06 µM

O=C1Cc2cc(CCn3cncn3)c(Cl)cc2N1
GI50 [1]: > 100 µM | TGI [1]: > 100 µM | GI50 [2]: 23.3 µM | TGI [2]: > 100 µM | GI50 [3]: > 100 µM | TGI [3]: > 100 µM | GI50 [4]: 13.2 µM | TGI [4]: > 100 µM | GI50 [5]: 3.22 µM | TGI [5]: > 100 µM | GI50 [6]: 7.48 µM | TGI [6]: > 100 µM | GI50 [7]: > 100 µM | TGI [7]: > 100 µM | GI50 [8]: 21 µM | TGI [8]: > 100 µM | GI50 [9]: > 100 µM | TGI [9]: > 100 µM | GI50 [10]: 68.6 µM | TGI [10]: > 100 µM

Clc1cccc(CNc2c3ccccc3nc3ccccc23)c1
GI50 [1]: 1.98 µM | TGI [1]: 10.2 µM | GI50 [2]: 1.54 µM | TGI [2]: 3.88 µM | GI50 [3]: 1.53 µM | TGI [3]: 3.08 µM | GI50 [4]: 1.76 µM | TGI [4]: 6.44 µM | GI50 [5]: 1.67 µM | TGI [5]: 3.13 µM | GI50 [6]: 1.35 µM | TGI [6]: 2.85 µM | GI50 [7]: 2.22 µM | TGI [7]: 6.24 µM | GI50 [8]: 1.7 µM | TGI [8]: 3.25 µM | GI50 [9]: 2.06 µM | TGI [9]: 6.54 µM | GI50 [10]: 1.95 µM | TGI [10]: 4.2 µM
